In data set [1] the test system is Plasma. As to the kind of experiment: Anticoagulant activity in human plasma assessed as concentration required to double prothrombin time. The data set is classed as functional.
Data set [2] deals with Coagulation factor X (Homo sapiens, UniProt P00742). As to the kind of experiment: Inhibition of F10a.
Data set [3] concerns the target Trypsin (Homo sapiens) (UniProt P07477+P07478+P35030). As to the kind of experiment: Inhibition of trypsin. The data set is classed as protein assay.
Data set [4] deals with Cytochrome P450 2D6 (Homo sapiens, UniProt P10635). As to the kind of experiment: Inhibition of CYP2D6. In kind it is ADME.
Sequence of Cytochrome P450 2D6 (P10635 whole entry): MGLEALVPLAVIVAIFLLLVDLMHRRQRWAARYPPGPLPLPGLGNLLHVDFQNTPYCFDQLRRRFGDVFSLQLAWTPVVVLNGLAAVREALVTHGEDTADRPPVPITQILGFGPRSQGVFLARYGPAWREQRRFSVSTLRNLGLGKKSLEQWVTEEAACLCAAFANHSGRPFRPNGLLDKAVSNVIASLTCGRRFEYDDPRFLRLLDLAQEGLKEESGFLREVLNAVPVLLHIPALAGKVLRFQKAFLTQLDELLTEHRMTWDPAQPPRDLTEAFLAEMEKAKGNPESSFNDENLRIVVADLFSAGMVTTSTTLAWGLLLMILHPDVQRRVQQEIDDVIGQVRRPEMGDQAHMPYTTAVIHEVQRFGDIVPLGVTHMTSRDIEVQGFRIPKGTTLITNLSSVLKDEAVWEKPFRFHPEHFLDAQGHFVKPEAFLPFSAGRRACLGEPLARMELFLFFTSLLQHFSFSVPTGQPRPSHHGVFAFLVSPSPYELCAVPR
For data set [5], the target named is T1, Coagulation factor VII (Homo sapiens) (UniProt P08709).
T1 sequence (whole entry): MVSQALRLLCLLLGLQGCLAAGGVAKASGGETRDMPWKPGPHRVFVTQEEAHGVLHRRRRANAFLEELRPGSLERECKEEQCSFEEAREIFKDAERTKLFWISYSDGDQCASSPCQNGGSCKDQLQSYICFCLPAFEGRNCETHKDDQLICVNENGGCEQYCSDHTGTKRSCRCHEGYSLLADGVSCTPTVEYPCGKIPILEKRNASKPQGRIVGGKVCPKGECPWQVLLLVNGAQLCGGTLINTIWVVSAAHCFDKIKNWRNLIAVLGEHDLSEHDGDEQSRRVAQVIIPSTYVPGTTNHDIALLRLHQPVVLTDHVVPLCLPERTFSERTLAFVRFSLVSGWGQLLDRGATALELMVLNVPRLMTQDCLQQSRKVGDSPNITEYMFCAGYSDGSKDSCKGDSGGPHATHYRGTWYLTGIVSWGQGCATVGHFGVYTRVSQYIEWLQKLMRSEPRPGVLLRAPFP
Briefly: Inhibition of F7a.

Data set [6] deals with Cytochrome P450 2C9 (Homo sapiens, UniProt P11712). As to the kind of experiment: Inhibition of CYP2C9. The data set is classed as ADME.
Sequence of Cytochrome P450 2C9 (P11712 whole entry): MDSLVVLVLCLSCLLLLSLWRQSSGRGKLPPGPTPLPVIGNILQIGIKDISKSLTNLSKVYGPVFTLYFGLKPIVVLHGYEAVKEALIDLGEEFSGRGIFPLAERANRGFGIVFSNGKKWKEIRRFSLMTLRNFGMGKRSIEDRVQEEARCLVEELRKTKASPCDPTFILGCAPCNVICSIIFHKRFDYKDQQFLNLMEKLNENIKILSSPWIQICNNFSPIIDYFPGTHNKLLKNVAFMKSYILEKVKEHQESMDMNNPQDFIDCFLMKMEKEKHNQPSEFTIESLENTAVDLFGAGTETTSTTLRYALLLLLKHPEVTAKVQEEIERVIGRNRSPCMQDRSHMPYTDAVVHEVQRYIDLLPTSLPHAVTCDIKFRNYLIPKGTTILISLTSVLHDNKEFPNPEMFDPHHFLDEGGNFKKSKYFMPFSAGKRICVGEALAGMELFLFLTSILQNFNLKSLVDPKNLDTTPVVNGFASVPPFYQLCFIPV
Data set [7] addresses Plasma kallikrein (Homo sapiens) (UniProt P03952). Briefly: Inhibition of plasma kallikrein. The data set is classed as cell-free.
Data set [8] addresses Coagulation factor IX (Homo sapiens) (UniProt P00740). As to the kind of experiment: Inhibition of F9a.
For data set [9], the target named is Prothrombin (Homo sapiens) (UniProt P00734). As to the kind of experiment: Inhibition of thrombin.
Data set [10] addresses Cytochrome P450 3A4 (Homo sapiens, UniProt P08684). As to the kind of experiment: Inhibition of CYP3A4. In kind it is ADME.
Data set [11] can be described thus: Permeability from apical to basolateral side of the Caco-2 cell membrane at pH 6.5. The following applies: human, Caco-2, pH 6.5; read-out: permeability. The data set is classed as ADME, cell-based. A general note: Caco-2 monolayers are a common model of the intestinal barrier.
In data set [12] the target is Cytochrome P450 2C19 (Homo sapiens, UniProt P33261). Briefly: Inhibition of CYP2C19. In kind it is ADME.
Sequence of Cytochrome P450 2C19 (P33261 whole entry): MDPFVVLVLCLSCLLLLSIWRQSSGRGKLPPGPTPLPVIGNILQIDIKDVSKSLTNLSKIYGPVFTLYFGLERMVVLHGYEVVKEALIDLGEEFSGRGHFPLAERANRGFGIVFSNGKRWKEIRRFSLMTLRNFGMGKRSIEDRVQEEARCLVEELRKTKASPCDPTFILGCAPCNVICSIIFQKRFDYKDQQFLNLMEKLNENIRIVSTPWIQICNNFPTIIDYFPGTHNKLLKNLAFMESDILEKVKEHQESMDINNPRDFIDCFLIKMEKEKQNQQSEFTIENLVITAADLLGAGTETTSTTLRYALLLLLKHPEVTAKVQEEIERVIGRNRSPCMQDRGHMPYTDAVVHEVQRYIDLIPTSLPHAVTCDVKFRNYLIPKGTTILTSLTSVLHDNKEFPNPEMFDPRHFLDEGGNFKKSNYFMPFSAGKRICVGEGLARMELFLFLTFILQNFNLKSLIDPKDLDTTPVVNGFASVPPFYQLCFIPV
The target in data set [13] is T2, Cytochrome P450 1A2 (Homo sapiens, UniProt P05177).
T2 sequence (P05177 whole entry): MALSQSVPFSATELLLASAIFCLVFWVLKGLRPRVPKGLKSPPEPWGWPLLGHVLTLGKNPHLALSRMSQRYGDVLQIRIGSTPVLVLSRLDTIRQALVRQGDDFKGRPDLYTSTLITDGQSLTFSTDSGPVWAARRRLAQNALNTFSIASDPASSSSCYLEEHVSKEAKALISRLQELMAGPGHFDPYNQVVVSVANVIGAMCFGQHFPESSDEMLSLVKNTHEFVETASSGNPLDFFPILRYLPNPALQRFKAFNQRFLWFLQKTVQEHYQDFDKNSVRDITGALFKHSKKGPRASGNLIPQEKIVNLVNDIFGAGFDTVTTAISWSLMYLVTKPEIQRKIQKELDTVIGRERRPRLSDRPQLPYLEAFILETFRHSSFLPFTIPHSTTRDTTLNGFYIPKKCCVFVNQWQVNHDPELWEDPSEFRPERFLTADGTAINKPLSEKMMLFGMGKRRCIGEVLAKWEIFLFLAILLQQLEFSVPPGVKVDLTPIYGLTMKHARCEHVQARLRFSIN
As to the kind of experiment: Inhibition of CYP1A2. In kind it is ADME.

Drawing on ChEMBL document CHEMBL1140480, “Amino(methyl) pyrrolidines as novel scaffolds for factor Xa inhibitors” (Bioorg Med Chem Lett, 2007), this text covers Activity, IC50 and Papp A→B for 19 compounds.

Where “and” joins values, the source holds several entries; their conditions need not be identical. Equal values may be shown once. Some results are limits rather than exact numbers.

Sequence of Coagulation factor X (P00742 41-179 limits assumed): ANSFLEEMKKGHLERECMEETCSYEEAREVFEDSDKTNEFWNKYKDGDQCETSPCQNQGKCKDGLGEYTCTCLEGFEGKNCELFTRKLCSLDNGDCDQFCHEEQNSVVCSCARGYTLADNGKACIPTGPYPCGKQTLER
Sequence of Coagulation factor X (P00742 235-488 limits assumed): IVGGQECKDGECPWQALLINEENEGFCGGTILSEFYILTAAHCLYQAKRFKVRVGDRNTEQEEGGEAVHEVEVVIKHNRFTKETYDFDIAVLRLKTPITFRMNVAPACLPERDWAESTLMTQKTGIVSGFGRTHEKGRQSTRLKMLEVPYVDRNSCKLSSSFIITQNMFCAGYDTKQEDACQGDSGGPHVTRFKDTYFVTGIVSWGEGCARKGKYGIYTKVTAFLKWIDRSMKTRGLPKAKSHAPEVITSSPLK
Sequence of Cytochrome P450 3A4 (P08684 whole entry): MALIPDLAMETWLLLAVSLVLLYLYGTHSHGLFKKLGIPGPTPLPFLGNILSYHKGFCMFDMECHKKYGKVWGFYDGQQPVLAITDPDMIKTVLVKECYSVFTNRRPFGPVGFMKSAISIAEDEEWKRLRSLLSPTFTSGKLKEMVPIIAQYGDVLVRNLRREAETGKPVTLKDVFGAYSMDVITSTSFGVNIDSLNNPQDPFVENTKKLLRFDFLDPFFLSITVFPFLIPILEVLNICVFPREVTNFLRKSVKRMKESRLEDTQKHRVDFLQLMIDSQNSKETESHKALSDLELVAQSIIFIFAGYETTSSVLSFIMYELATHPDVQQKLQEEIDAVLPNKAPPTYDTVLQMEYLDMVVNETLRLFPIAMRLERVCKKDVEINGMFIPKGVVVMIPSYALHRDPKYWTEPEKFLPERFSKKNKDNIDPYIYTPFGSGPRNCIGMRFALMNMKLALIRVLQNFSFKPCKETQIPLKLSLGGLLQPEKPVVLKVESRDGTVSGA
Sequence of Coagulation factor IX (Homo sapiens) (P00740 47-191 limits assumed): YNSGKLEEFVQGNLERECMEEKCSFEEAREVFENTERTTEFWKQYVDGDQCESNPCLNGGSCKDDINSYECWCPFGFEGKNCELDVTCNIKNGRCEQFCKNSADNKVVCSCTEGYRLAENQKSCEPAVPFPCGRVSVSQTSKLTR
Sequence of Coagulation factor IX (Homo sapiens) (P00740 227-461 limits assumed): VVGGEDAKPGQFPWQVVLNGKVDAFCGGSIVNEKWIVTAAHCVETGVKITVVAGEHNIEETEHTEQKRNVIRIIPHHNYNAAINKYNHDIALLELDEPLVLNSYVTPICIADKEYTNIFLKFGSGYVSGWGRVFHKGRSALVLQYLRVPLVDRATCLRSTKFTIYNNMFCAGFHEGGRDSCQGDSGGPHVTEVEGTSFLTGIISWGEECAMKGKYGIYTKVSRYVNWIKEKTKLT
Sequence of Plasma kallikrein (Homo sapiens) (P03952 20-390 limits assumed): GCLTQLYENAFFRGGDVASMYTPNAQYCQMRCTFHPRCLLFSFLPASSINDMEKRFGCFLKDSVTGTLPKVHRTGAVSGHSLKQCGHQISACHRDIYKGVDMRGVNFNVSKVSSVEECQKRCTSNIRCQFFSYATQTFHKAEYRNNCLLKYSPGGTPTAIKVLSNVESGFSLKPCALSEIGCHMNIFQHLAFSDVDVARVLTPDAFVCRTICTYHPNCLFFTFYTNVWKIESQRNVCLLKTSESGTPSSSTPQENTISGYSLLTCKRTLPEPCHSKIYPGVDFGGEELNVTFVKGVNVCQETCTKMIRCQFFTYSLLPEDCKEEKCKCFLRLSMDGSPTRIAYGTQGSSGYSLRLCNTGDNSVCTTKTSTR
Sequence of Plasma kallikrein (Homo sapiens) (P03952 391-638 limits assumed): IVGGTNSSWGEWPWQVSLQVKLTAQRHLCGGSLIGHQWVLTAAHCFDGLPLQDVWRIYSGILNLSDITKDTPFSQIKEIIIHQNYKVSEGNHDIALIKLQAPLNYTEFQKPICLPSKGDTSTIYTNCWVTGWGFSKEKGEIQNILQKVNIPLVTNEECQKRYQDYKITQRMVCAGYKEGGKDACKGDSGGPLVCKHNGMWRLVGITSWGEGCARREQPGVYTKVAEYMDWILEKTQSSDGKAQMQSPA

As a reminder, the IC50 is the point on the concentration scale where inhibition reaches its midpoint. On to `O=C(C(=O)N1CCC[C@H]1CN1CCCC1)N1CC[C@H](CNS(=O)(=O)/C=C/c2ccc(Cl)s2)C1`, for which, in [1], the Activity was found to be 8 µM. This compound showed an IC50 in data set [2] of 70 nM.

For the compound `O=C(c1ccc(-n2ccnc2)cc1)N1CC[C@H](CNS(=O)(=O)/C=C/c2ccc(Cl)s2)C1`, in data set [2], the IC50 worked out at 1300 nM.

With `O=C(N1CCCC1)N1CC[C@H](CNS(=O)(=O)c2ccc(-c3ccc(Cl)s3)s2)C1`, the Activity in [1] is 130 µM. The IC50 in data set [2] amounted to 130 nM.

For `O=C(C1CCN(c2ccncc2)CC1)N1CCC(CNS(=O)(=O)/C=C/c2ccc(Br)s2)C1` (racemic), the Activity in data set [1] is 8.7 µM. Further, the IC50 in data set [2] amounted to 86 nM.

In the case of `O=C(C1CCN(c2ccncc2)CC1)N1CCC(CNS(=O)(=O)c2cc3ccc(Cl)cc3s2)C1` (racemic), the Activity in data set [1] was 45 µM. Moreover, the IC50 in [2] turned out to be 255 nM.

As for `Cc1nccc(N2CCC(C(=O)N3CC[C@@H](CNS(=O)(=O)c4ccc(-c5ccc(Cl)s5)s4)C3)CC2)n1`, the Activity in data set [1] is 50 µM. Moreover, the IC50 in [2] turned out to be 61 nM.

With `O=C(C1CCN(c2ccncc2)CC1)N1CC[C@@H](CNS(=O)(=O)/C=C/c2ccc(Cl)s2)C1`, the Activity in data set [1] was found to be 1.7 µM.

`O=C(C1CCN(c2ccncc2)CC1)N1CCC(CNS(=O)(=O)/C=C/c2cccc(Cl)c2)C1` (racemic) displayed an IC50 in data set [2] of 4300 nM.

`O=C(C1CCN(c2ccncc2)CC1)N1CCC(CNS(=O)(=O)/C=C/c2ccc(Cl)cc2)C1` (racemic): the Activity in data set [1] was 32 µM. In data set [2], this compound had an IC50 of 493 nM.

`O=C(C1CCN(c2ccncc2)CC1)N1CCC(CNS(=O)(=O)c2ccc3ccccc3c2)C1` (racemic): the IC50 in data set [2] was determined as 1100 nM.

With `Cc1nccc(N2CCC(C(=O)N3CC[C@H](CNS(=O)(=O)/C=C/c4ccc(Cl)s4)C3)CC2)n1`, half-maximal inhibition in [2] (IC50) was put at 718 nM.

`O=C(C1CCN(c2ccncc2)CC1)N1CC[C@H](CNS(=O)(=O)/C=C/c2ccc(Cl)s2)C1`: the Activity in [1] came out at 13 µM.

Consider `O=C(C1CCN(c2ccncc2)CC1)N1CC[C@@H](CNS(=O)(=O)/C=C/c2ccc(Br)s2)C1`, for which the Activity in data set [1] worked out at 5 µM. The midpoint of inhibition in data set [2], the IC50, lay at 22 nM.

Consider `O=C(C(=O)N1CCC[C@H]1CN1CCCC1)N1CC[C@@H](CNS(=O)(=O)/C=C/c2ccc(Cl)s2)C1`, for which the IC50 in data set [2] was determined as 436 nM.

Consider `O=C(N1CC[C@H](CNS(=O)(=O)c2ccc(-c3ccc(Cl)s3)s2)C1)N1CCC[C@H]1CN1CCCC1`, for which the Activity in data set [1] came to 13 µM. The half-inhibitory concentration (IC50) in [2] was 40 nM.

In the case of `NS(=O)(=O)c1ccccc1-c1ccc(C(=O)N2CC[C@@H](CNS(=O)(=O)/C=C/c3ccc(Cl)s3)C2)cc1`, the IC50 in [2] was 1900 nM.

`Cc1nccc(N2CCC(C(=O)N3CC[C@@H](CNS(=O)(=O)/C=C/c4ccc(Cl)s4)C3)CC2)n1`: the Activity in [1] is 28 µM. Besides, in data set [2], the IC50 was 230 nM.

Consider `O=C(C1CCN(c2ccncc2)CC1)N1CC[C@@H](CNS(=O)(=O)c2ccc(-c3ccc(Cl)s3)s2)C1`, for which the Activity was more than 30 µM in data set [3]; more than 30 µM in data set [5]; 6.8 µM in data set [1]; more than 30 µM in data set [7]; more than 30 µM in data set [8]; more than 30 µM in data set [9]. Besides, the concentration for half-maximal inhibition (IC50) was 7970 nM in data set [4]; 1470 nM in data set [6]; 18 nM in [2]; 2330 nM and 1000 nM in [10]; 14100 nM in data set [12]; more than 20000 nM in [13]. In data set [11], the Papp A→B is less than 1.5 ×10⁻⁶ cm/s.

Consider `O=C(C1CCN(c2ccncc2)CC1)N1CCC(CNS(=O)(=O)c2ccc3cc(Cl)ccc3c2)C1` (racemic), for which the Activity in data set [1] was determined as 40 µM. The compound also displayed an IC50 in [2] of 247 nM.
